Values quoted from earlier work in patent US20220257506A1, “Alkaline Drink” (WET HOLDINGS (GLOBAL) LIMITED, priority 2019, published 2022).

Legend:
[1] = humans
[2] = not given; remark: listed apart in the source
[3] = acute dosing, murine stroke models
[4] = acute administration, humans
[5] = system: testicular endocrine function; settings: dogs, very high doses
[6] = system: adrenal and gonadal steroidogenesis; settings: humans, up to 80 mg/day, basal conditions

C=C(C)[C@@H]1CCC(C)=C[C@H]1c1c(O)cc(CCCCC)cc1O [CBD, Cannabidiol]
decrease of blood pressure (600 mg single dose, nine healthy male volunteers): about 6 mm Hg
resting blood pressure and blood pressure response to stress (single dose, particularly cold stress, post-test periods): reduces resting blood pressure and the blood pressure response to stress
abuse or dependence potential [1]: no effects indicative of any abuse or dependence potential

CCCCCc1cc(O)c2c(c1)OC(C)(C)[C@@H]1CCC(C)=C[C@@H]21 [THC, (−)-trans-Δ^9-tetrahydrocannabinol]
BP and heart rate ([2]; acute dosing, anaesthetised animals, conscious animals and animal models of stress or hypertension): reduced BP and heart rate
BF in large arteries ([2]; chronic dosing, anaesthetised animals): increased BF in large arteries
BP ([2]; chronic dosing, models of stress or hypertension): reduced BP
cerebral BF [3]: increased cerebral BF
HR [4]: increased HR

CC[C@H](C)C(=O)O[C@H]1C[C@@H](C)C=C2C=C[C@H](C)[C@H](CC[C@@H]3C[C@@H](O)CC(=O)O3)[C@H]21 [lovastatin]
testicular endocrine function [5]: reduction in testicular endocrine function
effect on adrenal and gonadal steroidogenesis [6]: no effect on adrenal and gonadal steroidogenesis
